In patent US8106055B2, “Substituted amide compounds” (Gruenenthal GmbH, priority 2007, dated 2012):

What follows are molecules tested against T1, bradykinin 1 receptor (B1R) of the rat (Rattus norvegicus, UniProt P97583) (assay: Functional investigation on the rat bradykinin 1 receptor (B1R), Ca2+ FLIPR assay in CHO K1 rB1R cells). Conditions: B1R antagonism rat; test substance 10 μM; Ca2+ FLIPR, CHO K1 rB1R cells.
T1 construct: expressed in transfected cells; host or cells: CHO K1 cells
T1 sequence (P97583 1-337): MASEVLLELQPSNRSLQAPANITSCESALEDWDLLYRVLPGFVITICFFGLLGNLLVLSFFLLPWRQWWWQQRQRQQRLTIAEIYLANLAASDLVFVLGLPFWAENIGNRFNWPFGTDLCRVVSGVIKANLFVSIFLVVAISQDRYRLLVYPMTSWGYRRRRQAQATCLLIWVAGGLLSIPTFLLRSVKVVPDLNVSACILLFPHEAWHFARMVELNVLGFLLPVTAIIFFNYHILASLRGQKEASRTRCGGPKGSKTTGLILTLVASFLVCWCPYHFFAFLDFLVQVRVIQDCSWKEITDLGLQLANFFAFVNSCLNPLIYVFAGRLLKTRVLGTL
Assay type: cell-based
In short: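 Cells were dye-loaded with Fluo-4 plus probenecid, then test substances added and Ca2+ influx compared with agonist control for % activation. After 10-20 min, EC80 agonist (Lys-Des-Arg9-bradykinin human; Des-Arg9-bradykinin rat) was applied; suppression gave % inhibition and IC50 values.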

Row | SMILES | B1R Ant. r [10 μM] % Inhibition [%]
1 | COc1cc(C)c(S(=O)(=O)N2CCC(CCOCC(=O)NCCC3CCC(C(c4ccc(Cl)cc4)N(C)C)CC3)CC2)c(C)c1C (stereo not shown) [Example 561] | −12
2 | CN(C)C(c1ccc(F)cc1)C1CCC(CCNC(=O)COCCN(C)S(=O)(=O)c2ccc(Cl)cc2Cl)CC1 (stereo not shown) [Example 586] | 76
3 | CN(C)C(c1ccc(F)cc1)C1CCC(CCNC(=O)COC2CCN(S(=O)(=O)c3ccccc3)CC2)CC1 (stereo not shown) [Example 553] | −14
4 | COc1cc(C)c(S(=O)(=O)N(CCOCC(=O)NCCC2CCC(C(c3ccc(Cl)cc3)N(C)C)CC2)Cc2ccccc2)c(C)c1 (stereo not shown) [Example 569] | 9
5 | CN(C)C(c1cccc(F)c1)C1CCC(CCNC(=O)COCCC2CCN(S(=O)(=O)c3ccccc3)CC2)CC1 (stereo not shown) [Example 543] | 15
6 | COc1ccc(S(=O)(=O)N2CCCCC2COCC(=O)NC2CCC(C(c3ccc(F)cc3)N(C)C)CC2)cc1OC (stereo not shown) [Example 555] | 0
7 | CN(C)C(CCc1ccccc1)C1CCC(CNC(=O)COCCN(C)S(=O)(=O)c2cccc(C(F)(F)F)c2)CC1 (stereo not shown) [Example 556] | 20
8 | COc1ccc(S(=O)(=O)N2CCCCC2COCC(=O)NCC2CCC(C(c3ccc(F)cc3)N(C)C)CC2)cc1OC (single isomer, unassigned) [Example 537] | 8
9 | CN(C)C(CCc1ccccc1)C1CCC(CNC(=O)COC2CCCN(S(=O)(=O)c3ccccc3)C2)CC1 (stereo not shown) [Example 558] | 12
10 | COc1ccc(S(=O)(=O)N(C)CCOCC(=O)NC2CCC(C(c3ccc(F)cc3)N(C)C)CC2)cc1OC (stereo not shown) [Example 548] | 11
11 | COc1cc(C)c(S(=O)(=O)N(CCOCC(=O)NCC2CCC(C(c3ccc(F)cc3)N(C)C)CC2)Cc2ccccc2)c(C)c1C (stereo not shown) [Example 563] | −16
12 | CN(C)C(c1ccc(Cl)cc1)C1CCC(CNC(=O)COCCC2CCN(S(=O)(=O)c3ccccc3)CC2)CC1 (stereo not shown) [Example 584] | 41
13 | COc1ccc(S(=O)(=O)N2CCCC2COCC(=O)NCC2CCC(C(CCc3ccccc3)N(C)C)CC2)cc1 (stereo not shown) [Example 572] | 62
14 | COc1ccc(S(=O)(=O)N2CCCCC2COCC(=O)NCCC2CCC(C(c3cccc(F)c3)N(C)C)CC2)cc1OC (stereo not shown) [Example 581] | 8
15 | COc1ccc(S(=O)(=O)N2CCCCC2COCC(=O)NCC2CCC(C(CCc3ccccc3)N(C)C)CC2)c(OC)c1 (stereo not shown) [Example 486] | 20
16 | CN(C)C(CCc1ccccc1)C1CCC(CNC(=O)COC2CCN(S(=O)(=O)c3ccccc3)C2)CC1 (stereo not shown) [Example 573] | 14
17 | CN(C)C(c1ccc(F)cc1)C1CCC(CNC(=O)COC2CCN(S(=O)(=O)c3ccccc3)CC2)CC1 (stereo not shown) [Example 568] | 12
18 | CN(C)C(CCc1ccccc1)C1CCC(CNC(=O)COCCN(C)S(=O)(=O)c2c(Cl)cccc2Cl)CC1 (stereo not shown) [Example 580] | 44
19 | CN(C)C(CCc1ccccc1)C1CCC(CNC(=O)COCCN(C)S(=O)(=O)c2c(Cl)cccc2Cl)CC1 (stereo not shown) [Example 476] | 74
20 | COc1ccc(S(=O)(=O)N2CCCCC2COCC(=O)NCC2CCC(C(CCc3ccccc3)N(C)C)CC2)cc1OC (stereo not shown) [Example 559] | −12
21 | COc1cc(C)c(S(=O)(=O)N(CCOCC(=O)NCCC2CCC(C(c3ccc(F)cc3)N(C)C)CC2)Cc2ccccc2)c(C)c1 (stereo not shown) [Example 547] | 30
22 | COc1ccc(S(=O)(=O)N2CCCCC2COCC(=O)NCC2CCC(C(c3ccc(F)cc3)N(C)C)CC2)cc1OC (single isomer, unassigned) [Example 534] | −4
23 | COc1ccc(S(=O)(=O)N(C)CCOCC(=O)NCC2CCC(C(CCc3ccccc3)N(C)C)CC2)cc1OC (stereo not shown) [Example 571] | 15
24 | CN(C)C(CCc1ccccc1)C1CCC(CNC(=O)COCC2CCCN(S(=O)(=O)c3ccccc3)C2)CC1 (stereo not shown) [Example 544] | 38
25 | CN(C)C(CCc1ccccc1)C1CCC(CNC(=O)COCCN(C)S(=O)(=O)c2ccc(OC(F)(F)F)cc2)CC1 (stereo not shown) [Example 567] | 42
26 | COc1ccc(S(=O)(=O)N2CCC(OCC(=O)NCC3CCC(C(CCc4ccccc4)N(C)C)CC3)C2)cc1OC (stereo not shown) [Example 566] | 22

Same assay, conditions: CHO-K1, B1R antagonism rat; test substance 10 μM; Ca2+ FLIPR, CHO K1 rB1R cells; read-out: B1R Ant. r [10 μM] % Inhibition

Row | SMILES | inhibition at 10 µM [%]
27 | CN(C)C(c1cccs1)C1CCC(CCNC(=O)COCCN2CCN(S(=O)(=O)c3ccccc3)CC2)CC1 (stereo not shown) [Example 99, N-(2-(4-((dimethylamino)(thiophen-2-yl)methyl)cyclohexyl)ethyl)-2-(2-(4-(phenylsulfonyl)piperazin-1-yl)ethoxy)acetamide] | -8
28 | CN(C)C(c1cccs1)C1CCC(CCNC(=O)COC2CCCN(S(=O)(=O)c3ccccc3)C2)CC1 (stereo not shown) [Example 100, N-(2-(4-((dimethylamino)(thiophen-2-yl)methyl)cyclohexyl)ethyl)-2-(1-(phenylsulfonyl)piperidin-3-yloxy)acetamide] | 27
29 | COc1cc(C)c(S(=O)(=O)N2CCC(OCC(=O)NC3CCC(C(c4cccs4)N(C)C)CC3)C2)c(C)c1 (stereo not shown) [Example 98, N-(4-((dimethylamino)(thiophen-2-yl)methyl)cyclohexyl)-2-(1-(4-methoxy-2,6-dimethylphenylsulfonyl)pyrrolidin-3-yloxy)acetamide] | 69
30 | CN(C)C(c1cccc(F)c1)C1CCC(CNC(=O)COCC2CCCN2S(=O)(=O)c2ccc(Cl)c(Cl)c2)CC1 (stereo not shown) [Example 119, 2-((1-(3,4-dichlorophenylsulfonyl)pyrrolidin-2-yl)methoxy)-N-((4-((dimethylamino)(3-fluorophenyl)methyl)cyclohexyl)methyl)acetamide] | -6
31 | CN(C)C(c1ccccc1)C1CCC(CNC(=O)COC2CCCN(S(=O)(=O)c3ccccc3)C2)CC1 (stereo not shown) [Example 114, N-((4-((dimethylamino)(phenyl)methyl)cyclohexyl)methyl)-2-(1-(phenylsulfonyl)piperidin-3-yloxy)acetamide] | 8
32 | CN(C)C(c1cccc(F)c1)C1CCC(CCNC(=O)COCCN(C)S(=O)(=O)c2ccc(Cl)cc2Cl)CC1 (stereo not shown) [Example 126, 2-(2-(2,4-dichloro-N-methylphenylsulfonamido)ethoxy)-N-(2-(4-((dimethylamino)(3-fluorophenyl)methyl)cyclohexyl)ethyl)acetamide] | 59
33 | COc1cc(C)c(S(=O)(=O)N2CCC(CCOCC(=O)NCC3CCC(C(c4cccs4)N(C)C)CC3)CC2)c(C)c1C (stereo not shown) [Example 131, N-((4-((dimethylamino)(thiophen-2-yl)methyl)cyclohexyl)methyl)-2-(2-(1-(4-methoxy-2,3,6-trimethylphenylsulfonyl)piperidin-4-yl)ethoxy)acetamide] | -20
34 | CN(C)C(c1cccs1)C1CCC(CCNC(=O)COC2CCN(S(=O)(=O)c3cccc(C(F)(F)F)c3)C2)CC1 (stereo not shown) [Example 96, N-(2-(4-((dimethylamino)(thiophen-2-yl)methyl)cyclohexyl)ethyl)-2-(1-(3-(trifluoromethyl)phenylsulfonyl)pyrrolidin-3-yloxy)acetamide] | 26
35 | CCN(CCOCC(=O)NCC1CCC(C(c2cccc(F)c2)N(C)C)CC1)S(=O)(=O)c1c(C)cc(OC)c(C)c1C (stereo not shown) [Example 117, N-((4-((dimethylamino)(3-fluorophenyl)methyl)cyclohexyl)methyl)-2-(2-(N-ethyl-4-methoxy-2,3,6-trimethylphenylsulfonamido)ethoxy)acetamide] | 77
36 | COc1cc(C)c(S(=O)(=O)N2CCC(OCC(=O)NCC3CCC(C(c4cccs4)N(C)C)CC3)CC2)c(C)c1C (stereo not shown) [Example 104, N-((4-((dimethylamino)(thiophen-2-yl)methyl)cyclohexyl)methyl)-2-(1-(4-methoxy-2,3,6-trimethylphenylsulfonyl)piperidin-4-yloxy)acetamide] | -10
37 | CN(C)C(c1ccccc1)C1CCC(CNC(=O)COCCN(C)S(=O)(=O)c2ccc(F)cc2)CC1 (stereo not shown) [Example 112, N-((4-((dimethylamino)(phenyl)methyl)cyclohexyl)methyl)-2-(2-(4-fluoro-N-methylphenylsulfonamido)ethoxy)acetamide] | 5
38 | COc1cc(C)c(S(=O)(=O)N2CCC(CCOCC(=O)NC3CCC(C(c4cccc(F)c4)N(C)C)CC3)CC2)c(C)c1C (stereo not shown) [Example 118, N-(4-((dimethylamino)(3-fluorophenyl)methyl)cyclohexyl)-2-(2-(1-(4-methoxy-2,3,6-trimethylphenylsulfonyl)piperidin-4-yl)ethoxy)acetamide] | -4
39 | Cc1ccc(S(=O)(=O)N2CCC(OCC(=O)NCC3CCC(C(c4ccccc4)N(C)C)CC3)C2)cc1 (stereo not shown) [Example 125, N-((4-((dimethylamino)(phenyl)methyl)cyclohexyl)methyl)-2-(1-tosylpyrrolidin-3-yloxy)acetamide] | 6
40 | CN(C)C(c1cccs1)C1CCC(CCNC(=O)COCC2CCCN(S(=O)(=O)c3ccccc3)C2)CC1 (stereo not shown) [Example 115, N-(2-(4-((dimethylamino)(thiophen-2-yl)methyl)cyclohexyl)ethyl)-2-((1-(phenylsulfonyl)piperidin-3-yl)methoxy)acetamide] | 21
